# Reference: paper PMC10353187, “Discovery of a new potent oxindole multi-kinase inhibitor among a series of designed 3-alkenyl-oxindoles with ancillary carbonic anhydrase inhibitory activity as antiproliferative agents” (BMC Chemistry, 2023)
# Tests used:
# hCA II = hCA II (Homo sapiens, UniProt P00918); assay: Stopped flow CO2 hydrase assay
# hCA IX = hCA IX (Homo sapiens, UniProt Q16790); assay: Stopped flow CO2 hydrase assay; conditions: for Selectivity ratio I/IX: Ki hCA I / Ki hCA IX; for Selectivity ratio II/IX: Ki hCA II / Ki hCA IX
# hCA I = hCA I (Homo sapiens, UniProt P00915); assay: Stopped flow CO2 hydrase assay
# Chain of hCA I (P00915 whole entry): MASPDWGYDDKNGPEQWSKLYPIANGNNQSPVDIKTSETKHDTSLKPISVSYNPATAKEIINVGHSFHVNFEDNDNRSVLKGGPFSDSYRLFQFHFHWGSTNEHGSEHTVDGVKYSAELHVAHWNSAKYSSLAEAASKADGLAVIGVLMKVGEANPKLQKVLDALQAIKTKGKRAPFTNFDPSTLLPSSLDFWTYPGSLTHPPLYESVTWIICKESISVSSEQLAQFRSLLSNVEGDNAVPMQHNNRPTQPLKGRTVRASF
# hCA XII = hCA XII (Homo sapiens, UniProt O43570); assay: Stopped flow CO2 hydrase assay; conditions: for Selectivity ratio I/XII: Ki hCA I / Ki hCA XII; for Selectivity ratio II/XII: Ki hCA II / Ki hCA XII
# Chain of hCA XII (O43570 25-354): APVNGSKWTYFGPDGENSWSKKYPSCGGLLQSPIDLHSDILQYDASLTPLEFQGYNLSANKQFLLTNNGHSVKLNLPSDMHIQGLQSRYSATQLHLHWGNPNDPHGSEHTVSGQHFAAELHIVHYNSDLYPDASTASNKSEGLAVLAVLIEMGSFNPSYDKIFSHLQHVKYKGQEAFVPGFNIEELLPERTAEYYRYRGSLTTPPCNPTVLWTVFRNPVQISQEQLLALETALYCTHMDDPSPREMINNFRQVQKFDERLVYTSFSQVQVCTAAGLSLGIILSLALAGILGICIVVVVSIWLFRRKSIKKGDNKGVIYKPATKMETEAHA
# UO-31 = assay: NCI-60 single-dose antiproliferative assay (SRB); format: cell-based, human; conditions: Homo sapiens, UO-31, 10 μM single dose; UO-31, Renal cancer; read-out: Cell Growth inhibition Percent
# Experimental: (§1) From the newly synthesized compounds, eleven compounds (4c, 4d, 5, 9a, 9b, 11a, 11b, 13b, 13c, 15b, and 15c) were selected by the National Cancer Institute (NCI) Developmental Therapeutics Program (DTP), Bethesda, Maryland, USA for the in vitro anti-proliferative activity evaluation. The selected compounds were examined at 10 μM dose against the NCI 60-cell line panel. This panel consists of nine cell line groups of leukemia, non-small cell lung carcinoma (NSCLC), melanoma, colon, CNS, ovarian, renal, prostate, and breast cancers. The results are reported as mean-graph of the percent growth relative to control and presented as percentage growth inhibition (GI%), furthermore, mean GI% of each compound over all panel cell lines was calculated (Table 1; Additional file 1; S3: In vitro biological activity).
# (§2) From the newly synthesized compounds, eleven compounds were selected by the National Cancer Institute (NCI) Developmental Therapeutics Program (DTP), Bethesda, Maryland, USA for the in vitro anti-proliferative activity evaluation (For further details see supplementary materials).
# (§3) NCI In-vitro Cancer Screening is a two-phase procedure that starts with the assessment of all compounds against the sixty NCI cell line panel depicting leukemia, NSCLC, CNS cancer, melanoma, prostate cancer, breast cancer, renal cancer, colon cancer and ovarian cancer cell lines at a single point of 10μM. The output from the single-dose screen is reportable as a mean graph.
# (§4) The human tumor cell lines of the cancer screening panel were grown in RPMI 1640 medium containing 5% fetal bovine serum and 2 mM L-glutamine. For a typical screening experiment, cells were inoculated into 96 well microtiter plates in […] at plating densities ranging from 5000 to 40,000 cells/well depending on the doubling time of individual cell lines. After cell inoculation, the microtiter plates were incubated at 37 °C, 5% CO2, 95% air and 100% relative humidity for 24 h prior to addition of experimental drugs. After 24 h, two plates of each cell line were fixed in situ with trichloroacetic acid (TCA), to represent a measurement of the cell population for each cell line at the time of drug addition (Tz). Experimental drugs were solubilized in dimethyl sulfoxide at 400-fold the desired final maximum test concentration and stored frozen prior to use. At the time of drug addition, an aliquot of frozen concentrate was thawed and diluted to twice the desired final maximum test concentration with complete medium containing 50 µg/ml gentamicin. Aliquot of 100 µl of the drug dilution was added to the appropriate microtiter wells already containing 100 µl of medium, resulting in the required final drug concentration (10 µM). Triplicate wells were prepared for each individual dose. Following drug addition, the plates were incubated for an additional 48 h at 37 °C, 5% CO2, 95% air, and 100% relative humidity. For adherent cells, the assay was terminated by the addition of cold TCA. Cells were fixed in situ by the gentle addition of 50 µl of cold 50% (w/v) TCA (final concentration, 10% TCA) and incubated for 60 min at 4 °C. The supernatant was discarded, and the plates were washed five times with tap water and air dried. Sulforhodamine B (SRB) solution (100 µl) at 0.4% (w/v) in 1% acetic acid was added to each well, and plates were incubated for 10 min at room temperature. After staining, unbound dye was removed by washing five times with 1% acetic acid and the plates were air dried. Bound stain was subsequently solubilized with 10 mM trizma base, and the absorbance was read on an automated plate reader at a wavelength of 515 nm. For suspension cells, the methodology was the same except that the assay was terminated by fixing settled cells at the bottom of the wells by gently adding 50 µl of 80% TCA (final concentration, 16% TCA). […]
# SNB-75 = assay: NCI-60 single-dose antiproliferative assay (SRB); format: cell-based; conditions: Homo sapiens; 10 μM single dose; SNB-75, CNS cancer; read-out: Cell Growth inhibition Percent
# Experimental: as §1, §2, §3, §4
# NCI-H522 = assay: NCI-60 single-dose antiproliferative assay (SRB); format: cell-based; conditions: Homo sapiens; 10 μM single dose; NCI-H522, Non-small cell lung cancer; read-out: Cell Growth inhibition Percent
# Experimental: as §1, §2, §3, §4
# HOP-92 = assay: NCI-60 single-dose antiproliferative assay (SRB); format: cell-based; conditions: Homo sapiens; 10 μM single dose; HOP-92, Non-small cell lung cancer; read-out: Cell Growth inhibition Percent
# Experimental: as §1, §2, §3, §4
# HOP-62 = assay: NCI-60 single-dose antiproliferative assay (SRB); format: cell-based; conditions: Homo sapiens; 10 μM single dose; HOP-62, Non-small cell lung cancer; read-out: Cell Growth inhibition Percent
# Experimental: as §1, §2, §3, §4
# OVCAR-8 = assay: NCI-60 single-dose antiproliferative assay (SRB); format: cell-based; conditions: Homo sapiens; 10 μM single dose; OVCAR-8, Ovarian Cancer; read-out: Cell Growth inhibition Percent
# Experimental: as §1, §2, §3, §4
# CAKI-1 = assay: NCI-60 single-dose antiproliferative assay (SRB); format: cell-based; conditions: Homo sapiens; 10 μM single dose; CAKI-1, Renal cancer; read-out: Cell Growth inhibition Percent
# Experimental: as §1, §2, §3, §4
# MCF7 = assay: NCI-60 single-dose antiproliferative assay (SRB); format: cell-based; conditions: Homo sapiens; 10 μM single dose; MCF7, Breast cancer; read-out: Cell Growth inhibition Percent
# Experimental: as §1, §2, §3, §4
# ACHN = assay: NCI-60 single-dose antiproliferative assay (SRB); format: cell-based; conditions: Homo sapiens, 10 μM single dose, Renal cancer, read-out: Cell Growth inhibition Percent
# Experimental: as §1, §2, §3, §4
Ki (hCA II),Ki (hCA IX),Ki (hCA I),Ki (hCA XII),melting point,Selectivity ratio I/IX (hCA IX),Selectivity ratio II/IX (hCA IX),Selectivity ratio I/XII (hCA XII),Selectivity ratio II/XII (hCA XII),Compound,inhibition at 10 µM (UO-31),inhibition at 10 µM (SNB-75),inhibition at 10 µM (NCI-H522),inhibition at 10 µM (HOP-92),inhibition at 10 µM (HOP-62),inhibition at 10 µM (OVCAR-8),inhibition at 10 µM (CAKI-1),inhibition at 10 µM (MCF7),inhibition at 10 µM (ACHN)
8.95 µM,> 10 µM,> 10 µM,> 10 µM,195 to 199 °C,–,–,–,–,"O=C1Nc2ccccc2C1=CNC1=NS(=O)(=O)c2ccccc21 [Compound 4a, 3-{[(1,1-Dioxidobenzo[d]isothiazol-3-yl)amino]methylene}indolin-2-one]",–,–,–,–,–,–,–,–,–
> 10 µM,> 10 µM,> 10 µM,> 10 µM,238 to 240 °C,–,–,–,–,"O=C1Nc2ccccc2C1=CNc1ccc(S(=O)(=O)Nc2ncccn2)cc1 [Compound 4b, 4-{[(2-Oxoindolin-3-ylidene)methyl]amino}-N-(pyrimidin-2-yl)benzenesulfonamide]",–,–,–,–,–,–,–,–,–

# Continued, compound first:
Compound,Ki (hCA II),Ki (hCA IX),Ki (hCA I),Ki (hCA XII),melting point,Selectivity ratio I/IX (hCA IX),Selectivity ratio II/IX (hCA IX),Selectivity ratio I/XII (hCA XII),Selectivity ratio II/XII (hCA XII),inhibition at 10 µM (UO-31),inhibition at 10 µM (SNB-75),inhibition at 10 µM (NCI-H522),inhibition at 10 µM (HOP-92),inhibition at 10 µM (HOP-62),inhibition at 10 µM (OVCAR-8),inhibition at 10 µM (CAKI-1),inhibition at 10 µM (MCF7),inhibition at 10 µM (ACHN)
"NS(=O)(=O)OC=C1C(=O)Nc2ccccc21 [Compound 7, (2-Oxoindolin-3-ylidene)methyl sulfamate]",5.58 µM,0.941 µM,6.24 µM,0.133 µM,165 to 170 °C,6.63,5.93,46.89,41.97,–,–,–,–,–,–,–,–,–
"NS(=O)(=O)c1ccc(NC(=O)c2ccc(NC=C3C(=O)Nc4ccccc43)cc2)cc1 [Compound 9a, 4-{[(2-Oxoindolin-3-ylidene)methyl]amino}-N-(4-sulfamoylphenyl)benzamide]",0.313 µM,0.0688 µM,0.332 µM,0.0594 µM,–,4.83,4.55,5.59,5.27,18%,4.88%,5.55%,6.83%,2.73%,0.63%,8.65%,6.01%,1.9%
"O=C1Nc2ccccc2C1=CNc1ccc(C(=O)Nc2nccs2)cc1 [Compound 9c, 4-{[(2-Oxoindolin-3-ylidene)methyl]amino}-N-(thiazol-2-yl)benzamide]",> 10 µM,> 10 µM,> 10 µM,> 10 µM,> 300 °C,–,–,–,–,–,–,–,–,–,–,–,–,–
